Reference: BigSolDB 2.1

Nc1n[nH]c(=S)s1
solubility (mole fraction)
Conditions | 283.15 K | 288.15 K | 293.15 K | 298.15 K | 303.15 K | 308.15 K | 313.15 K | 318.15 K | 323.15 K
in acetone | 0.0101 | 0.0107 | 0.0114 | 0.0121 | 0.0129 | 0.0135 | 0.0142 | 0.015 | 0.0158
in cyclohexanone | 0.0325 | 0.0343 | 0.036 | 0.0378 | 0.0397 | 0.0415 | 0.0433 | 0.0449 | 0.0467
in ethanol | 0.00402 | 0.00442 | 0.00486 | 0.00526 | 0.00578 | 0.00629 | 0.00684 | 0.00741 | 0.008
in ethyl acetate | 0.00203 | 0.00222 | 0.00242 | 0.00263 | 0.0028 | 0.00301 | 0.00326 | 0.0035 | 0.00374
in isobutanol | 0.00148 | 0.0017 | 0.00197 | 0.00225 | 0.00257 | 0.00289 | 0.00333 | 0.00376 | 0.0042
in isopropanol | 0.00224 | 0.00259 | 0.00302 | 0.00351 | 0.00397 | 0.00447 | 0.00501 | 0.0057 | 0.0065
in methanol | 0.00454 | 0.00505 | 0.00553 | 0.00617 | 0.00676 | 0.00737 | 0.00806 | 0.00882 | 0.00961
in methyl acetate | 0.0022 | 0.00239 | 0.0026 | 0.00285 | 0.00308 | 0.00332 | 0.00361 | 0.00386 | 0.00411
in n-butanol | 0.00216 | 0.00243 | 0.00284 | 0.00327 | 0.00372 | 0.00427 | 0.0048 | 0.00546 | 0.0061
in n-butyl acetate | 0.00158 | 0.00172 | 0.00189 | 0.00205 | 0.00221 | 0.0024 | 0.0026 | 0.00283 | 0.00304
in n-propanol | 0.0022 | 0.00259 | 0.00293 | 0.00341 | 0.00387 | 0.0043 | 0.00489 | 0.00561 | 0.00629
in n-propyl acetate | 0.00183 | 0.00197 | 0.00212 | 0.00228 | 0.00243 | 0.00259 | 0.00278 | 0.00295 | 0.00316
in sec-butanol | 0.00247 | 0.0029 | 0.00337 | 0.00397 | 0.00451 | 0.0051 | 0.00584 | 0.00667 | 0.00768
